Patent publication US10131652B2, “Pyrimidinyloxy benzene derivatives as herbicides” (E. I. DU PONT DE NEMOURS AND COMPANY, priority 2014, dated 2018)

Legend:
Format in all cases: in vivo
corn (Zea mays) [1] = experiment: Test B pre-/postemergence plant response
In short: (§1)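 Scoring used a 0–100 scale (100 = complete control) by visual comparison with untreated plants after approximately 10 days in the greenhouse. Compounds, in surfactant-containing non-phytotoxic solvent, were sprayed onto soil at planting or onto 2–10 cm seedlings.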

[2] = tested on: pigweed (Amaranthus retroflexus); experiment: Test B pre-/postemergence plant response
In short: as §1

[3] = tested on: giant foxtail (Setaria faberii); experiment: Test B pre-/postemergence plant response
In short: as §1

[4] = tested on: barnyardgrass (Echinochloa crus-galli); experiment: Test B pre-/postemergence plant response
In short: as §1

[5] = tested on: wheat (Triticum aestivum); experiment: Test B pre-/postemergence plant response
In short: as §1

[6] = tested on: lambsquarters (Chenopodium album); experiment: Test D pre-/postemergence plant response; details: Postemergence
In short: (§2)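 Visual rating, 0–100 scale (0 = no effect, 100 = complete control), versus untreated controls 13 to 15 days after treatment in greenhouse. Preemergence: seeds in loam/sand soil. Postemergence: 2 to 18 cm plants, 1- to 4-leaf stage, peat-based medium. Compounds formulated in non-phytotoxic solvent plus surfactant.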

[7] = tested on: large (Lg) crabgrass (Digitaria sanguinalis); experiment: Test D pre-/postemergence plant response; details: Postemergence; for Plant response rating, Crabgrass, Large: scale 0 to 100, 0 no effect, 100 complete control
In short: as §2

[8] = tested on: galium (catchweed bedstraw, Galium aparine); experiment: Test D pre-/postemergence plant response; details: Postemergence; for Plant response rating, Galium: scale 0 to 100, 0 no effect, 100 complete control
In short: as §2

[9] = tested on: waterhemp (common waterhemp, Amaranthus rudis); experiment: Test D pre-/postemergence plant response; details: Postemergence
In short: as §2

soybean (Glycine max) = experiment: Test D pre-/postemergence plant response; details: Postemergence
In short: as §2

corn (Zea mays) [10] = experiment: Test D pre-/postemergence plant response; details: Postemergence; for Plant response rating, Corn: scale 0 to 100, 0 no effect, 100 complete control
In short: as §2

[11] = tested on: morningglory (Ipomoea coccinea); experiment: Test D pre-/postemergence plant response; details: Postemergence
In short: as §2

[12] = tested on: yellow nutsedge (Cyperus esculentus); experiment: Test D pre-/postemergence plant response; details: Postemergence
In short: as §2

[13] = tested on: Italian ryegrass (Lolium multiflorum); experiment: Test D pre-/postemergence plant response; details: Postemergence
In short: as §2

[14] = tested on: winter wheat (Triticum aestivum); experiment: Test D pre-/postemergence plant response; details: Postemergence
In short: as §2

[15] = tested on: ragweed (common ragweed, Ambrosia elatior); experiment: Test D pre-/postemergence plant response; details: Postemergence
In short: as §2

[16] = 125 g ai/ha, postemergence, 0 to 100 scale, 0 no effect, 100 complete control
[17] = Postemergence, 31 g ai/ha, 0 to 100 scale (0 no effect, 100 complete control)
[18] = 31 g ai/ha, Preemergence, 0 to 100 scale where 0 is no effect and 100 is complete control
[19] = Preemergence, 125 g ai/ha, 0 to 100 scale (0 no effect, 100 complete control)
[20] = 31 g ai/ha, scale 0 to 100 (0 no effect, 100 complete control)
[21] = 62 g ai/ha, scale 0 to 100, 0 no effect, 100 complete control
[22] = 125 g ai/ha, scale 0 to 100, 0 no effect, 100 complete control

## FC(F)c1cc(-c2ccccc2Oc2ncc(Br)cn2)on1 [Compound 212]
Corn (Zea mays) [1]; [16]
  Plant response rating, Corn: 20
Corn (Zea mays) [1]; [17]
  Plant response rating, Corn: 10
[2]; [18]
  Plant response rating, Pigweed: 100
[2]; [16]
  Plant response rating, Pigweed: 100
[2]; [17]
  Plant response rating, Pigweed: 90
[2]; [19]
  Pigweed plant response rating: 100
[3]; [18]
  Plant response rating, Foxtail, Giant: 60
[3]; [16]
  Plant response rating, Foxtail, Giant: 70
[3]; [17]
  Plant response rating, Foxtail, Giant: 10
[3]; [19]
  Foxtail, Giant plant response rating: 100
[4]; [18]
  Plant response rating, Barnyardgrass: 10
[4]; [16]
  Plant response rating, Barnyardgrass: 30
[4]; [17]
  Plant response rating, Barnyardgrass: 0
[4]; [19]
  Barnyardgrass plant response rating: 60
[5]; [16]
  Plant response rating, Wheat: 10
[5]; [17]
  Plant response rating, Wheat: 0
[6]; 16 g ai/ha
  Plant response rating (scale 0 to 100), Lambsquarters: 40
[6]; [20]
  Lambsquarters plant response rating: 80
[6]; [21]
  Lambsquarters plant response rating: 98
[6]; [22]
  Plant response rating, Lambsquarters: 98
[7]; 16 g ai/ha
  Plant response rating (scale 0 to 100), Crabgrass, Large: 5
[7]; [20]
  Crabgrass, Large plant response rating: 10
[7]; 62 g ai/ha
  Plant response rating, Crabgrass, Large: 10
[7]; 125 g ai/ha
  Plant response rating, Crabgrass, Large: 15
[8]; 16 g ai/ha
  Plant response rating (scale 0 to 100), Galium: 60
[8]; [20]
  Galium plant response rating: 60
[8]; 62 g ai/ha
  Plant response rating, Galium: 65
[8]; 125 g ai/ha
  Plant response rating, Galium: 80
[9]; 16 g ai/ha
  Plant response rating (scale 0 to 100), Waterhemp: 80
[9]; [20]
  Waterhemp plant response rating: 98
[9]; [21]
  Waterhemp plant response rating: 100
[9]; [22]
  Plant response rating, Waterhemp: 100
Soybean (Glycine max); 16 g ai/ha
  Plant response rating (scale 0 to 100), Soybean: 60
Soybean (Glycine max); [20]
  Soybean plant response rating: 70
Soybean (Glycine max); [21]
  Soybean plant response rating: 85
Soybean (Glycine max); [22]
  Plant response rating, Soybean: 90
Corn (Zea mays) [10]; 16 g ai/ha
  Plant response rating (scale 0 to 100), Corn: 5
Corn (Zea mays) [10]; [20]
  Corn plant response rating: 5
Corn (Zea mays) [10]; 62 g ai/ha
  Plant response rating, Corn: 10
Corn (Zea mays) [10]; 125 g ai/ha
  Plant response rating, Corn: 15
[11]; 16 g ai/ha
  Plant response rating (scale 0 to 100), Morningglory: 75
[11]; [20]
  Morningglory plant response rating: 98
[11]; [21]
  Morningglory plant response rating: 75
[11]; [22]
  Plant response rating, Morningglory: 98
[12]; 16 g ai/ha
  Plant response rating (scale 0 to 100), Nutsedge, Yellow: 10
[12]; [20]
  Nutsedge, Yellow plant response rating: 5
[12]; [21]
  Nutsedge, Yellow plant response rating: 10
[12]; [22]
  Plant response rating, Nutsedge, Yellow: 5
[13]; 16 g ai/ha
  Plant response rating (scale 0 to 100), Ryegrass, Italian: 0
[13]; [20]
  Ryegrass, Italian plant response rating: 0
[13]; [21]
  Ryegrass, Italian plant response rating: 0
[13]; [22]
  Plant response rating, Ryegrass, Italian: 5
[14]; 16 g ai/ha
  Plant response rating (scale 0 to 100), Wheat: 0
[14]; [20]
  Wheat plant response rating: 5
[14]; [21]
  Wheat plant response rating: 5
[14]; [22]
  Plant response rating, Wheat: 15
[15]; 16 g ai/ha
  Plant response rating (scale 0 to 100), Ragweed: 35
[15]; [20]
  Ragweed plant response rating: 40
[15]; [21]
  Ragweed plant response rating: 55
[15]; [22]
  Plant response rating, Ragweed: 60

## CC(F)(F)c1cc(-c2ccccc2Oc2ncc(Cl)cn2)no1 [Compound 220]
Corn (Zea mays) [1]; [16]
  Plant response rating, Corn: 20
Corn (Zea mays) [1]; [17]
  Plant response rating, Corn: 10
[2]; [18]
  Plant response rating, Pigweed: 100
[2]; [16]
  Plant response rating, Pigweed: 100
[2]; [17]
  Plant response rating, Pigweed: 100
[2]; [19]
  Pigweed plant response rating: 100
[3]; [18]
  Plant response rating, Foxtail, Giant: 70
[3]; [16]
  Plant response rating, Foxtail, Giant: 80
[3]; [17]
  Plant response rating, Foxtail, Giant: 30
[3]; [19]
  Foxtail, Giant plant response rating: 100
[4]; [18]
  Plant response rating, Barnyardgrass: 10
[4]; [16]
  Plant response rating, Barnyardgrass: 40
[4]; [17]
  Plant response rating, Barnyardgrass: 10
[4]; [19]
  Barnyardgrass plant response rating: 100
[5]; [16]
  Plant response rating, Wheat: 50
[5]; [17]
  Plant response rating, Wheat: 10
[6]; 2 g ai/ha
  Plant response rating (scale 0 to 100), Lambsquarters: 55
[6]; 4 g ai/ha
  Plant response rating (scale 0 to 100), Lambsquarters: 45
[6]; 8 g ai/ha
  Plant response rating (scale 0 to 100), Lambsquarters: 5
[6]; 16 g ai/ha
  Plant response rating (scale 0 to 100), Lambsquarters: 70
[7]; 2 g ai/ha
  Plant response rating (scale 0 to 100), Crabgrass, Large: 5
[7]; 4 g ai/ha
  Plant response rating (scale 0 to 100), Crabgrass, Large: 5
[7]; 8 g ai/ha
  Plant response rating (scale 0 to 100), Crabgrass, Large: 5
[7]; 16 g ai/ha
  Plant response rating (scale 0 to 100), Crabgrass, Large: 15
[8]; 2 g ai/ha
  Plant response rating (scale 0 to 100), Galium: 50
[8]; 4 g ai/ha
  Plant response rating (scale 0 to 100), Galium: 50
[8]; 8 g ai/ha
  Plant response rating (scale 0 to 100), Galium: 55
[8]; 16 g ai/ha
  Plant response rating (scale 0 to 100), Galium: 60
[9]; 2 g ai/ha
  Plant response rating (scale 0 to 100), Waterhemp: 15
[9]; 4 g ai/ha
  Plant response rating (scale 0 to 100), Waterhemp: 60
[9]; 8 g ai/ha
  Plant response rating (scale 0 to 100), Waterhemp: 70
[9]; 16 g ai/ha
  Plant response rating (scale 0 to 100), Waterhemp: 80
Soybean (Glycine max); 2 g ai/ha
  Plant response rating (scale 0 to 100), Soybean: 15
Soybean (Glycine max); 4 g ai/ha
  Plant response rating (scale 0 to 100), Soybean: 10
Soybean (Glycine max); 8 g ai/ha
  Plant response rating (scale 0 to 100), Soybean: 10
Soybean (Glycine max); 16 g ai/ha
  Plant response rating (scale 0 to 100), Soybean: 10
Corn (Zea mays) [10]; 2 g ai/ha
  Plant response rating (scale 0 to 100), Corn: 0
Corn (Zea mays) [10]; 4 g ai/ha
  Plant response rating (scale 0 to 100), Corn: 5
Corn (Zea mays) [10]; 8 g ai/ha
  Plant response rating (scale 0 to 100), Corn: 5
Corn (Zea mays) [10]; 16 g ai/ha
  Plant response rating (scale 0 to 100), Corn: 5
[11]; 2 g ai/ha
  Plant response rating (scale 0 to 100), Morningglory: 35
[11]; 4 g ai/ha
  Plant response rating (scale 0 to 100), Morningglory: 15
[11]; 8 g ai/ha
  Plant response rating (scale 0 to 100), Morningglory: 25
[11]; 16 g ai/ha
  Plant response rating (scale 0 to 100), Morningglory: 75
[12]; 2 g ai/ha
  Plant response rating (scale 0 to 100), Nutsedge, Yellow: 0
[12]; 4 g ai/ha
  Plant response rating (scale 0 to 100), Nutsedge, Yellow: 0
[12]; 8 g ai/ha
  Plant response rating (scale 0 to 100), Nutsedge, Yellow: 0
[12]; 16 g ai/ha
  Plant response rating (scale 0 to 100), Nutsedge, Yellow: 5
[13]; 2 g ai/ha
  Plant response rating (scale 0 to 100), Ryegrass, Italian: 0
[13]; 4 g ai/ha
  Plant response rating (scale 0 to 100), Ryegrass, Italian: 0
[13]; 8 g ai/ha
  Plant response rating (scale 0 to 100), Ryegrass, Italian: 0
[13]; 16 g ai/ha
  Plant response rating (scale 0 to 100), Ryegrass, Italian: 0
[14]; 2 g ai/ha
  Plant response rating (scale 0 to 100), Wheat: 0
[14]; 4 g ai/ha
  Plant response rating (scale 0 to 100), Wheat: 0
[14]; 8 g ai/ha
  Plant response rating (scale 0 to 100), Wheat: 0
[14]; 16 g ai/ha
  Plant response rating (scale 0 to 100), Wheat: 0
[15]; 2 g ai/ha
  Plant response rating (scale 0 to 100), Ragweed: 5
[15]; 4 g ai/ha
  Plant response rating (scale 0 to 100), Ragweed: 15
[15]; 8 g ai/ha
  Plant response rating (scale 0 to 100), Ragweed: 15
[15]; 16 g ai/ha
  Plant response rating (scale 0 to 100), Ragweed: 25
